Data as given in patent US10622572B2, “Organic thin-film transistor and method for manufacturing the same, material for organic thin-film transistor, composition for organic thin-film transistor, compound, and organic semiconductor film” (FUJIFILM Corporation, priority 2015, dated 2020).
Read-outs that look alike come from different tables or passages of the source.

Assay: Solubility in organic solvents
Format: physicochemical
Details: organic solvent or mixture, thermodynamic from solid
[1] = 5 mg in 1 mL anisole, read-out: Solubility Anisole
[2] = 5 mg in 1 mL chloroform, read-out: Solubility Chloroform
[3] = 5 mg in 1 mL tetrahydrofuran, read-out: Solubility Tetrahydrofuran
[4] = 5 mg in 1 mL tetralin, read-out: Solubility Tetralin
[5] = 5 mg in 1 mL toluene, read-out: Solubility Toluene

Measured: solubility

CC(C)[Si](C#Cc1cc2c(cc(C#C[Si](C(C)C)(C(C)C)C(C)C)c3c2ccc2cc(F)sc23)c2ccc3cc(F)sc3c12)(C(C)C)C(C)C [Compound 4]
> 5000 µg/mL: [1] | [2] | [3] | [4] | [5]

CC(C)[Si](C#Cc1cc2c(cc(C#C[Si](C(C)C)(C(C)C)C(C)C)c3c4ccsc4ccc23)c2ccc3sccc3c12)(C(C)C)C(C)C [Compound 1]
> 5000 µg/mL: [1] | [2] | [3] | [4] | [5]

CC(C)[Si](C#Cc1cc2c(cc(C#C[Si](C(C)C)(C(C)C)C(C)C)c3c2ccc2ccsc23)c2ccc3ccsc3c12)(C(C)C)C(C)C [Compound 2]
> 5000 µg/mL: [1] | [2] | [3] | [4] | [5]

CC(C)[Si](C#Cc1cc2c(cc(C#C[Si](C(C)C)(C(C)C)C(C)C)c3c4cc(F)sc4ccc23)c2ccc3sc(F)cc3c12)(C(C)C)C(C)C [Compound 3]
> 5000 µg/mL: [1] | [2] | [3] | [4] | [5]
